The subject of test [1] is Human prostate cancer cells LNCaP-FGC. The test can be described thus: Inhibition of prostate-specific antigen (PSA) production in prostate cancer cells. The class given is cell-based. The following applies: 72 h, testosterone 1 ng/ml, three days after addition, ELISA, read-out: IC50, PSA production in culture supernatant. The procedure:
Human prostate cancer cells LNCaP-FGC were seeded in a 24-well plate at a concentration of 40,000 cells/ml/well or in a 96-well plate at a concentration of 5000 cells/100 μl/well. On the following day, testosterone (final concentration 1 ng/ml) and a compound (final concentration 0.01 to 10 μM) were added. Three days after the addition, the concentration of PSA in the supernatant of the culture solution was measured by ELISA, and IC50 was calculated.
Background: An ELISA detects its analyte on a solid surface through an enzyme-linked reagent.

Test [2] has as its target T1, mutation type AR (W741C) (Homo sapiens, UniProt P10275, W742C).
T1 construct: expressed in transfected cells; host or cells: Cos-7
T1 sequence (P10275 1-920 W742C): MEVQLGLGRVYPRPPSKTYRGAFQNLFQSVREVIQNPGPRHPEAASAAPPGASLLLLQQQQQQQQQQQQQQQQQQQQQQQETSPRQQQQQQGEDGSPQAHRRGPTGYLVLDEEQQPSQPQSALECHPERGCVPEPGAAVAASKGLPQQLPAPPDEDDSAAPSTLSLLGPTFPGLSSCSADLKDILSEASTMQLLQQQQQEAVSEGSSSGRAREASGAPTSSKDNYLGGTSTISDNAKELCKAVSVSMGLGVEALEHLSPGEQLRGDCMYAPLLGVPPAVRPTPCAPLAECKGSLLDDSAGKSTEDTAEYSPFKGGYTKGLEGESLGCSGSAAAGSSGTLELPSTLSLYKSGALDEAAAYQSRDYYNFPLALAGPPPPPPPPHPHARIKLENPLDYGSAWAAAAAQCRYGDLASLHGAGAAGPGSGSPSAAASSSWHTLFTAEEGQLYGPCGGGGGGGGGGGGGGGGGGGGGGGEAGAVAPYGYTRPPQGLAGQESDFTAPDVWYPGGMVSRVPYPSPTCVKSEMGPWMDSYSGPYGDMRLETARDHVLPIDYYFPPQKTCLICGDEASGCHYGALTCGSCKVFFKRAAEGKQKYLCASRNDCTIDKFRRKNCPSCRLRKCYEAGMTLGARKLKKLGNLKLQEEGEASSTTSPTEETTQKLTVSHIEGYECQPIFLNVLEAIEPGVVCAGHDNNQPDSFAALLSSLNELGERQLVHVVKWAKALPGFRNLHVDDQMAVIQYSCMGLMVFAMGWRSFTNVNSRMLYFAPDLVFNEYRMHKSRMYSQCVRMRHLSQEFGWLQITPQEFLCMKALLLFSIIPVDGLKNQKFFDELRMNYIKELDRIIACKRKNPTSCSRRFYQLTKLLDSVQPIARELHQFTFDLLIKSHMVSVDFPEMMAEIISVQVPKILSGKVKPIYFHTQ
As to the kind of experiment: AR transcription inhibition test (luciferase reporter). The class given is cell-based. Conditions: Cos-7 cells; test compound 1 μM; DHT 0.04 μM; 24 hours; luciferase activity; read-out: Inhibition rate (%) relative to the control. The procedure:
Cos-7 cells were inoculated in a flask at 5,000,000 cells, and incubated in a culture solution (DMEM+10% Dextran Charcoal (DCC)-Fetal Bovine Serum (FBS) +2 mM glutamine) for 24 hours. A vector DNA in which a mutation type AR (W741C) gene was inserted and a vector DNA combined with luciferase gene downstream of the androgen responsive promoter were cotransfected by the liposome method. Two hours later, the culture medium was replaced and incubation was further carried out for 3 hours. DHT (Dihydrotestosterone) at a final concentration 0.04 μM and a test compound at a final concentration of 1 μM were added, and incubation was further carried out for 24 hours. By measuring luciferase activity, AR transcription inhibitory activity of the test compound was examined.

The target of test [3] is T2, wild type androgen receptor (Homo sapiens, UniProt P10275).
T2 sequence (P10275 1-920): T1 sequence (P10275 1-920 W742C) with C742W
The test can be described thus: AR-binding inhibition test (wild type). The following applies: radio labeled Mibolerone 3 nM; 4° C., 3 hours; dextran/charcoal method. As for the experimental part:
(§1) A solution of wild type or LNCaP type mutant androgen receptor, radio labeled Mibolerone (final concentration 3 nM) and a compound (final concentration 0.001 to 10 μM) were mixed. The mixture was incubated at 4° C. for 3 hours, and by the dextran/charcoal method, B (Bound) and F (Free) Mibolerone were separated. The radioactivity of B was measured and IC50 was calculated.

Test [4] has as its target T3, LNCaP type mutant androgen receptor (Homo sapiens, UniProt P10275, T878A).
T3 sequence (P10275 1-920 T878A): T1 sequence (P10275 1-920 W742C) with C742W, T878A
The test can be described thus: AR-binding inhibition test (LNCaP type). The following applies: radio labeled Mibolerone 3 nM; 4° C., 3 hours; dextran/charcoal method. The procedure:
as §1

Positions count from the first letter of the chain named.

Consider `CC(O)(CS(=O)(=O)c1ccc(F)cc1)C(=O)Nc1ccc(C#N)c(C(F)(F)F)c1` (stereo not shown) [Bicalutamide, bicalutamide, reference compound], for which the IC50 (commonly the concentration needed to halve the response being measured) in test [1] is 823 nM.

Turning to `CCOC(=O)c1c(C)[nH]c(C)c1-c1ccc([N+](=O)[O-])cc1` [Example 1, Ethyl 2,5-dimethyl-4-(4-nitrophenyl)-1H-pyrrole-3-carboxylate], the inhibition (as a rule, the relative decrease from the control value, in per cent) at 1 µM in test [2] came to 64.3%. In addition, the IC50 worked out at 190 nM in test [3], 392 nM in test [1] and 200 nM in test [4].

Turning to `CCOC(=O)c1c(-c2ccc([N+](=O)[O-])cc2)c(C)n(Cc2ccccc2)c1C` [Example 4, Ethyl 1-benzyl-2,5-dimethyl-4-(4-nitrophenyl)-1H-pyrrole-3-carboxylate], the inhibition at 1 µM in test [2] stood at 20.1%. Moreover, the IC50 was 7.8 nM in test [3], 87 nM in test [1] and 7.5 nM in test [4].

For the molecule `COC(=O)c1c(-c2ccc(C#N)cc2)c(C)n(Cc2ccc(C#N)cc2)c1C` [Example 80, Methyl 1-(4-cyanobenzyl)-4-(4-cyanophenyl)-2,5-dimethyl-1H-pyrrole-3-carboxylate], the inhibition at 1 µM in test [2] turned out to be 80.1%. The IC50 in test [3] is 40 nM; in test [1] it was 34 nM; in test [4], 68 nM.

These data come from US20050101657A1, “Androgen receptor antagonists” (Takeda Chemical Industries Ltd., priority 2001, published 2005).
